# US10443082B2, “Concentration gradient test reagent kit and testing method for use in bacterial/fungal drug susceptibility testing” (XINTRUM PHARMACEUTICALS, LTD, priority 2014, dated 2019)
# What was measured:
# Type in all cases: cell-based
# Streptococcus pneumoniae [1] = assay: MIC assay, concentration gradient agar strip method
# Text: (§1) Combination of the pre-fabricated antimicrobial drug and pre-fabricated culture medium to form a test strip unit: the films are removed from the bottom and top of the culture medium container, and the cells of the culture medium container can be inserted into the corresponding cells of the drug container. Then, the drug container is covered with a lid, and the pressure created in the process causes the antimicrobial drug at the bottoms of the cells to come into contact with the solid culture medium, and therefore dissolved in the agar culture medium to reach a specific concentration. To use the solid culture medium, a bacterial culture solution can be applied on the upper surface of the solid culture medium in each cell of the culture medium container. Then the culture medium container is covered with a lid, and then kept at 35° C. for 16-20 hours before the culture result is visually checked. When the drug concentration is higher than the MIC for the bacteria, no bacteria is observed on the surface of the gel. When the drug concentration is lower than the MIC, the bacteria grows on the surface of the culture medium and eventually develops a bacterial colony thereon. The lowest drug concentration at which no bacteria is observed on the gel surface is considered as the MIC of the antimicrobial drug for the strain under test.
# (§2) This embodiment still uses a drug container with 12 round cells, and each round cell has internal dimensions of 4 mm×6 mm (bottom's radius×height). However, the experimental strains in use are Streptococcus pneumoniae. […] The bacterial lawn on the drug-free control agar blocks is expected to grow well; and • 8) performing an MIC assay on the test strains with the tube broth dilution method.
# Streptococcus pneumoniae [2] = assay: MIC assay, tube broth dilution method; details: read-out: MIC, Concentration (tube broth dilution method)
# Text: as §2
# Escherichia coli [3] = assay: MIC assay, concentration gradient agar strip method
# Text: as §1
# (§3) A concentration gradient measurement method for use in bacterial/fungal drug susceptibility testing is provided. […] The bacterial lawn on the drug-free control agar blocks is expected to grow well; and • 8) in the meantime, performing an MIC assay on the test strains with tube broth dilution method.
# Klebsiella pneumoniae [4] = assay: as above
# Text: as §1, §3
# Proteus mirabilis [5] = assay: as above; details: Strain No. 27 Proteus mirabilis
# Text: as §1, §3
# Enterobacter cloacae [6] = assay: as above
# Text: as §1, §3
# Klebsiella oxytoca [7] = assay: as above
# Text: as §1, §3
# Escherichia coli [8] = assay: MIC assay, tube broth dilution method; details: read-out: MIC, Concentration (tube broth dilution method)
# Text: as §3
# Klebsiella pneumoniae [9] = assay: MIC assay, tube broth dilution method; details: read-out: MIC, Concentration (tube broth dilution method)
# Text: as §3
# Proteus mirabilis [10] = assay: MIC assay, tube broth dilution method; details: Strain No. 27 Proteus mirabilis; read-out: MIC, Concentration (tube broth dilution method)
# Text: as §3
# Enterobacter cloacae [11] = assay: MIC assay, tube broth dilution method
# Text: as §3
# Klebsiella oxytoca [12] = assay: MIC assay, tube broth dilution method
# Text: as §3
# [13] = Strain No. 1 Streptococcus pneumoniae
# [14] = Strain No. 2 Streptococcus pneumoniae
# [15] = Strain No. 3 Streptococcus pneumoniae
# [16] = Strain No. 4 Streptococcus pneumoniae
# [17] = Strain No. 5 Streptococcus pneumoniae
# [18] = Strain No. 6 Streptococcus pneumoniae
# [19] = Strain No. 7 Streptococcus pneumoniae
# [20] = Strain No. 8 Streptococcus pneumoniae
# [21] = Strain No. 9 Streptococcus pneumoniae
# [22] = Strain No. 10 Streptococcus pneumoniae
# [23] = Strain No. 11 Streptococcus pneumoniae
# [24] = Strain No. 12 Streptococcus pneumoniae
# [25] = Strain No. 13 Streptococcus pneumoniae
# [26] = Strain No. 14 Streptococcus pneumoniae
# [27] = Strain No. 15 Streptococcus pneumoniae
# [28] = Strain No. 16 Streptococcus pneumoniae
# [29] = Strain No. 17 Streptococcus pneumoniae
# [30] = Strain No. 18 Streptococcus pneumoniae
# [31] = Strain No. 19 Streptococcus pneumoniae
# [32] = Strain No. 20 Streptococcus pneumoniae
# [33] = Strain No. 1 Klebsiella pneumoniae
# [34] = Strain No. 2 Klebsiella pneumoniae
# [35] = Strain No. 3 Klebsiella pneumoniae
# [36] = Strain No. 4 Klebsiella pneumoniae
# [37] = Strain No. 5 Klebsiella pneumoniae
# [38] = Strain No. 6 Klebsiella pneumoniae
# [39] = Strain No. 7 Klebsiella pneumoniae
# [40] = Strain No. 8 Klebsiella pneumoniae
# [41] = Strain No. 18 Klebsiella pneumoniae
# [42] = Strain No. 21 Klebsiella pneumoniae
# [43] = Strain No. 24 Klebsiella pneumoniae
# [44] = Strain No. 29 Enterobacter cloacae
# [45] = Strain No. 25 Klebsiella oxytoca
smiles,measurement,setting,value
CC1(C)S[C@@H]2[C@H](NC(=O)[C@H](N)c3ccc(O)cc3)C(=O)N2[C@H]1C(=O)O [Amoxicillin],MIC,Streptococcus pneumoniae [1]; [13],0.12 µg/mL
same,MIC,Streptococcus pneumoniae [1]; [14],0.12 µg/mL
same,MIC,Streptococcus pneumoniae [1]; [15],0.25 µg/mL
same,MIC,Streptococcus pneumoniae [1]; [16],0.25 µg/mL
same,MIC,Streptococcus pneumoniae [1]; [17],0.5 µg/mL
same,MIC,Streptococcus pneumoniae [1]; [18],0.12 µg/mL
same,MIC,Streptococcus pneumoniae [1]; [19],0.25 µg/mL
same,MIC,Streptococcus pneumoniae [1]; [20],1 µg/mL
same,MIC,Streptococcus pneumoniae [1]; [21],0.25 µg/mL
same,MIC,Streptococcus pneumoniae [1]; [22],2 µg/mL
same,MIC,Streptococcus pneumoniae [1]; [23],0.12 µg/mL
same,MIC,Streptococcus pneumoniae [1]; [24],0.06 µg/mL
same,MIC,Streptococcus pneumoniae [1]; [25],0.06 µg/mL
same,MIC,Streptococcus pneumoniae [1]; [26],2 µg/mL
same,MIC,Streptococcus pneumoniae [1]; [27],0.12 µg/mL
same,MIC,Streptococcus pneumoniae [1]; [28],0.12 µg/mL
same,MIC,Streptococcus pneumoniae [1]; [29],1 µg/mL
same,MIC,Streptococcus pneumoniae [1]; [30],0.5 µg/mL
same,MIC,Streptococcus pneumoniae [1]; [31],0.25 µg/mL
same,MIC,Streptococcus pneumoniae [1]; [32],0.12 µg/mL
same,MIC,Streptococcus pneumoniae [2]; [13],0.12 µg/mL
same,MIC,Streptococcus pneumoniae [2]; [14],0.12 µg/mL
same,MIC,Streptococcus pneumoniae [2]; [15],0.12 µg/mL
same,MIC,Streptococcus pneumoniae [2]; [16],0.25 µg/mL
same,MIC,Streptococcus pneumoniae [2]; [17],0.5 µg/mL
same,MIC,Streptococcus pneumoniae [2]; [18],0.12 µg/mL
same,MIC,Streptococcus pneumoniae [2]; [19],0.25 µg/mL
same,MIC,Streptococcus pneumoniae [2]; [20],0.5 µg/mL
same,MIC,Streptococcus pneumoniae [2]; [21],0.25 µg/mL
same,MIC,Streptococcus pneumoniae [2]; [22],2 µg/mL
same,MIC,Streptococcus pneumoniae [2]; [23],0.12 µg/mL
same,MIC,Streptococcus pneumoniae [2]; [24],0.06 µg/mL
same,MIC,Streptococcus pneumoniae [2]; [25],0.12 µg/mL
same,MIC,Streptococcus pneumoniae [2]; [26],2 µg/mL
same,MIC,Streptococcus pneumoniae [2]; [27],0.12 µg/mL
same,MIC,Streptococcus pneumoniae [2]; [28],0.12 µg/mL
same,MIC,Streptococcus pneumoniae [2]; [29],1 µg/mL
same,MIC,Streptococcus pneumoniae [2]; [30],1 µg/mL
same,MIC,Streptococcus pneumoniae [2]; [31],0.12 µg/mL
same,MIC,Streptococcus pneumoniae [2]; [32],0.12 µg/mL
CO/N=C(\C(=O)N[C@@H]1C(=O)N2C(C(=O)O)=C(COC(C)=O)CS[C@H]12)c1csc(N)n1 [Cefotaxime],MIC,Escherichia coli [3]; Strain No. 9 Escherichia coli,8 µg/mL
same,MIC,Escherichia coli [3]; Strain No. 10 Escherichia coli,1 µg/mL
same,MIC,Escherichia coli [3]; Strain No. 11 Escherichia coli,2 µg/mL
same,MIC,Escherichia coli [3]; Strain No. 12 Escherichia coli,4 µg/mL
same,MIC,Escherichia coli [3]; Strain No. 13 Escherichia coli,4 µg/mL
same,MIC,Escherichia coli [3]; Strain No. 14 Escherichia coli,8 µg/mL
same,MIC,Escherichia coli [3]; Strain No. 15 Escherichia coli,2 µg/mL
same,MIC,Escherichia coli [3]; Strain No. 16 Escherichia coli,4 µg/mL
same,MIC,Escherichia coli [3]; Strain No. 17 Escherichia coli,4 µg/mL
same,MIC,Escherichia coli [3]; Strain No. 19 Escherichia coli,16 µg/mL
same,MIC,Escherichia coli [3]; Strain No. 20 Escherichia coli,4 µg/mL
same,MIC,Escherichia coli [3]; Strain No. 23 Escherichia coli,8 µg/mL
same,MIC,Escherichia coli [3]; Strain No. 26 Escherichia coli,4 µg/mL
same,MIC,Escherichia coli [3]; Strain No. 30 Escherichia coli,8 µg/mL
same,MIC,Klebsiella pneumoniae [4]; [33],4 µg/mL
same,MIC,Klebsiella pneumoniae [4]; [34],4 µg/mL
same,MIC,Klebsiella pneumoniae [4]; [35],4 µg/mL
same,MIC,Klebsiella pneumoniae [4]; [36],2 µg/mL
same,MIC,Klebsiella pneumoniae [4]; [37],2 µg/mL
same,MIC,Klebsiella pneumoniae [4]; [38],4 µg/mL
same,MIC,Klebsiella pneumoniae [4]; [39],8 µg/mL
same,MIC,Klebsiella pneumoniae [4]; [40],4 µg/mL
same,MIC,Klebsiella pneumoniae [4]; [41],16 µg/mL
same,MIC,Klebsiella pneumoniae [4]; [42],8 µg/mL
same,MIC,Klebsiella pneumoniae [4]; [43],4 µg/mL
same,MIC,Proteus mirabilis [5],8 µg/mL
same,MIC,Enterobacter cloacae [6]; Strain No. 28 Enterobacter cloacae,16 µg/mL
same,"MIC, Concentration (gradient agar strip method)",Enterobacter cloacae [6]; [44],16.0 µg/mL
same,MIC,Klebsiella oxytoca [7]; Strain No. 22 Klebsiella oxytoca,8 µg/mL
same,"MIC, Concentration (gradient agar strip method)",Klebsiella oxytoca [7]; [45],8.0 µg/mL
same,MIC,Escherichia coli [8]; Strain No. 9 Escherichia coli,8 µg/mL
same,MIC,Escherichia coli [8]; Strain No. 10 Escherichia coli,1 µg/mL
same,MIC,Escherichia coli [8]; Strain No. 11 Escherichia coli,4 µg/mL
same,MIC,Escherichia coli [8]; Strain No. 12 Escherichia coli,4 µg/mL
same,MIC,Escherichia coli [8]; Strain No. 13 Escherichia coli,4 µg/mL
same,MIC,Escherichia coli [8]; Strain No. 14 Escherichia coli,8 µg/mL
same,MIC,Escherichia coli [8]; Strain No. 15 Escherichia coli,4 µg/mL
same,MIC,Escherichia coli [8]; Strain No. 16 Escherichia coli,4 µg/mL
same,MIC,Escherichia coli [8]; Strain No. 17 Escherichia coli,4 µg/mL
same,MIC,Escherichia coli [8]; Strain No. 19 Escherichia coli,16 µg/mL
same,MIC,Escherichia coli [8]; Strain No. 20 Escherichia coli,4 µg/mL
same,MIC,Escherichia coli [8]; Strain No. 23 Escherichia coli,8 µg/mL
same,MIC,Escherichia coli [8]; Strain No. 26 Escherichia coli,4 µg/mL
same,MIC,Escherichia coli [8]; Strain No. 30 Escherichia coli,8 µg/mL
same,MIC,Klebsiella pneumoniae [9]; [33],4 µg/mL
same,MIC,Klebsiella pneumoniae [9]; [34],4 µg/mL
same,MIC,Klebsiella pneumoniae [9]; [35],2 µg/mL
same,MIC,Klebsiella pneumoniae [9]; [36],2 µg/mL
same,MIC,Klebsiella pneumoniae [9]; [37],2 µg/mL
same,MIC,Klebsiella pneumoniae [9]; [38],4 µg/mL
same,MIC,Klebsiella pneumoniae [9]; [39],8 µg/mL
same,MIC,Klebsiella pneumoniae [9]; [40],4 µg/mL
same,MIC,Klebsiella pneumoniae [9]; [41],16 µg/mL
same,MIC,Klebsiella pneumoniae [9]; [42],8 µg/mL
same,MIC,Klebsiella pneumoniae [9]; [43],4 µg/mL
same,MIC,Proteus mirabilis [10],4 µg/mL
same,MIC,"Enterobacter cloacae [11]; Strain No. 28 Enterobacter cloacae, read-out: MIC, Concentration (tube broth dilution method)",16 µg/mL
same,"MIC, Concentration (tube broth dilution method)",Enterobacter cloacae [11]; [44],16.0 µg/mL
same,MIC,"Klebsiella oxytoca [12]; Strain No. 22 Klebsiella oxytoca, read-out: MIC, Concentration (tube broth dilution method)",8 µg/mL
same,"MIC, Concentration (tube broth dilution method)",Klebsiella oxytoca [12]; [45],8.0 µg/mL
